Experimental data as given in ChEMBL document CHEMBL1150977, “A quantitative analysis of kinase inhibitor selectivity” (Nat Biotechnol, 2008).

Biological target: BMP-2-inducible protein kinase (Homo sapiens, UniProt Q9NSY1)

| Compound | Kd [µM] |
| --- | --- |
| NC(=O)c1ccc(-c2nc(-c3ccc4c(c3)OCO4)c(-c3ccccn3)[nH]2)cc1 [SB-431542] | > 10 |

Biological target: Tyrosine-protein kinase ABL1 (Homo sapiens, UniProt P00519, H396P)

| Compound | Kd [µM] |
| --- | --- |
| NC(=O)c1ccc(-c2nc(-c3ccc4c(c3)OCO4)c(-c3ccccn3)[nH]2)cc1 [SB-431542] | > 10 |

Biological target: T1, TGF-beta receptor type-1 (Homo sapiens, UniProt P36897)
T1 sequence (P36897 whole entry): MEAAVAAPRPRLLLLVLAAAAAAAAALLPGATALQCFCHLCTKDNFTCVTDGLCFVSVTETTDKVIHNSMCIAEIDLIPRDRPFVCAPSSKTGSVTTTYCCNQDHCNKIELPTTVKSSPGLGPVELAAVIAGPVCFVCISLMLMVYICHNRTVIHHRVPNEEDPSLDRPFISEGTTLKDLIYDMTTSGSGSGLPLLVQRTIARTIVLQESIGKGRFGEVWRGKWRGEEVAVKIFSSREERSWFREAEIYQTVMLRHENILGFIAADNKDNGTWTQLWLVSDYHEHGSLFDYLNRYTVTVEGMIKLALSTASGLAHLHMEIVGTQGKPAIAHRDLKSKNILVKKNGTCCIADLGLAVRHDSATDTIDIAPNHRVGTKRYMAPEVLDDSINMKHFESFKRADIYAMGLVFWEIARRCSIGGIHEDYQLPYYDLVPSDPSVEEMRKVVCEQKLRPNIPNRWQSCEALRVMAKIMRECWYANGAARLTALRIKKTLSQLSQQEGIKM

| Compound | Kd [µM] |
| --- | --- |
| CCOc1cc2ncc(C#N)c(Nc3ccc(F)c(Cl)c3)c2cc1NC(=O)/C=C/CN(C)C [PELITINIB] | > 10 |
| Nc1nc(Nc2ccc(S(N)(=O)=O)cc2)nn1C(=O)c1c(F)cccc1F [JNJ-7706621] | > 10 |

Biological target: Dual specificity protein kinase CLK4 (Homo sapiens, UniProt Q9HAZ1)

| Compound | Kd [µM] |
| --- | --- |
| NC(=O)c1ccc(-c2nc(-c3ccc4c(c3)OCO4)c(-c3ccccn3)[nH]2)cc1 [SB-431542] | > 10 |

Biological target: Ephrin type-A receptor 5 (Homo sapiens, UniProt P54756)
Sequence (P54756 whole entry): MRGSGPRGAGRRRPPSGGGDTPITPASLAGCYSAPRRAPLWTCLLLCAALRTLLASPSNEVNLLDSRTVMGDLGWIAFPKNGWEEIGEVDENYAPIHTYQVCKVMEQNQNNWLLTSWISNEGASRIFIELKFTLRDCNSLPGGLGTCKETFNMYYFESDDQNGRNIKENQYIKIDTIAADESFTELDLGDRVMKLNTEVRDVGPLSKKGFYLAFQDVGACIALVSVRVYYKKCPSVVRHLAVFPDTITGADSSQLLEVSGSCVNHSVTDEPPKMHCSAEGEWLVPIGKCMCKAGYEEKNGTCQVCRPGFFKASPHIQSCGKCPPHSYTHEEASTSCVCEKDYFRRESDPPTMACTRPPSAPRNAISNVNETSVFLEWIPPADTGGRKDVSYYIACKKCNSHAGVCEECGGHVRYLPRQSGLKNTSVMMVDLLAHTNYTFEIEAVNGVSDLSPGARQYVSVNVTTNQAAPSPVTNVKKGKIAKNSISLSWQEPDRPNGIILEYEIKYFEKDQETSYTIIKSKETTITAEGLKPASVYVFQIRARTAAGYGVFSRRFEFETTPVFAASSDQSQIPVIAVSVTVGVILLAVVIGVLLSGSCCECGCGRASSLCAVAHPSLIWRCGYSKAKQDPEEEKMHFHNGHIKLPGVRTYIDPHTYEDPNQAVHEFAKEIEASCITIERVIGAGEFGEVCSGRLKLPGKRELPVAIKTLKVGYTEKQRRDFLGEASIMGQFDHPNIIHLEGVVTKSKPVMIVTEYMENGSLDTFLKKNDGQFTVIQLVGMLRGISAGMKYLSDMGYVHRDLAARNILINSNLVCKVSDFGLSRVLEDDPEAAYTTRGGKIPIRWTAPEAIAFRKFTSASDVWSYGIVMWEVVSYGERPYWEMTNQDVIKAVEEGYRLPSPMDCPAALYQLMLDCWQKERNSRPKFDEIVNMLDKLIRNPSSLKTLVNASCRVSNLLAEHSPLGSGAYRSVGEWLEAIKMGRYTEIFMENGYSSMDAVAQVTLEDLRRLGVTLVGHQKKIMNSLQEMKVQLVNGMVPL

| Compound | Kd [µM] |
| --- | --- |
| CCOc1cc2ncc(C#N)c(Nc3ccc(F)c(Cl)c3)c2cc1NC(=O)/C=C/CN(C)C [PELITINIB] | > 10 |
| Nc1nc(Nc2ccc(S(N)(=O)=O)cc2)nn1C(=O)c1c(F)cccc1F [JNJ-7706621] | > 10 |
| NC(=O)c1ccc(-c2nc(-c3ccc4c(c3)OCO4)c(-c3ccccn3)[nH]2)cc1 [SB-431542] | > 10 |

Biological target: BDNF/NT-3 growth factors receptor (Homo sapiens, UniProt Q16620)
Sequence (Q16620 whole entry): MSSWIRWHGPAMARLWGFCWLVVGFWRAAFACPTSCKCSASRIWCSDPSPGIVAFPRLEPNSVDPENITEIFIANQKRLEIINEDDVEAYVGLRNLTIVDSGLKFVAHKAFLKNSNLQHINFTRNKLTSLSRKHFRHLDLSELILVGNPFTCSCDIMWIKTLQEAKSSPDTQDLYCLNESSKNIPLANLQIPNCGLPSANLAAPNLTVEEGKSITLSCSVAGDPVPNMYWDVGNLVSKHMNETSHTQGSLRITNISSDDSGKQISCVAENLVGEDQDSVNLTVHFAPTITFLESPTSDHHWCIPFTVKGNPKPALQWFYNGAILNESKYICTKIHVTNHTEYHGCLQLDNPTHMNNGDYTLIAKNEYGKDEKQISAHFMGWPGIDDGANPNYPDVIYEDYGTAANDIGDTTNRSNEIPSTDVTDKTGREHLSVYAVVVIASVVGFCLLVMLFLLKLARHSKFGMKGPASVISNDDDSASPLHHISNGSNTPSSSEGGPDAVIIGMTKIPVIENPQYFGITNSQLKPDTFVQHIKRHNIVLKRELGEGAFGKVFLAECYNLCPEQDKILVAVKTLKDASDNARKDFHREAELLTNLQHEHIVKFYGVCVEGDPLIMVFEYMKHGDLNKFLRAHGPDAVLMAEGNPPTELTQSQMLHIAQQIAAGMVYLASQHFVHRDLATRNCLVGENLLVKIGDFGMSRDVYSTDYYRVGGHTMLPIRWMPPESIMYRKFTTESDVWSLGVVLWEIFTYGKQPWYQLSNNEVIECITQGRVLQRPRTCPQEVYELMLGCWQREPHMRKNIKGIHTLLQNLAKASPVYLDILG

| Compound | Kd [µM] |
| --- | --- |
| CCOc1cc2ncc(C#N)c(Nc3ccc(F)c(Cl)c3)c2cc1NC(=O)/C=C/CN(C)C [PELITINIB] | > 10 |
| Nc1nc(Nc2ccc(S(N)(=O)=O)cc2)nn1C(=O)c1c(F)cccc1F [JNJ-7706621] | > 10 |
| NC(=O)c1ccc(-c2nc(-c3ccc4c(c3)OCO4)c(-c3ccccn3)[nH]2)cc1 [SB-431542] | > 10 |

Biological target: Macrophage colony-stimulating factor 1 receptor (Homo sapiens, UniProt P07333)

| Compound | Kd [µM] |
| --- | --- |
| NC(=O)c1ccc(-c2nc(-c3ccc4c(c3)OCO4)c(-c3ccccn3)[nH]2)cc1 [SB-431542] | > 10 |

Biological target: T2, Ephrin type-B receptor 4 (Homo sapiens, UniProt P54760)
T2 sequence (P54760 whole entry): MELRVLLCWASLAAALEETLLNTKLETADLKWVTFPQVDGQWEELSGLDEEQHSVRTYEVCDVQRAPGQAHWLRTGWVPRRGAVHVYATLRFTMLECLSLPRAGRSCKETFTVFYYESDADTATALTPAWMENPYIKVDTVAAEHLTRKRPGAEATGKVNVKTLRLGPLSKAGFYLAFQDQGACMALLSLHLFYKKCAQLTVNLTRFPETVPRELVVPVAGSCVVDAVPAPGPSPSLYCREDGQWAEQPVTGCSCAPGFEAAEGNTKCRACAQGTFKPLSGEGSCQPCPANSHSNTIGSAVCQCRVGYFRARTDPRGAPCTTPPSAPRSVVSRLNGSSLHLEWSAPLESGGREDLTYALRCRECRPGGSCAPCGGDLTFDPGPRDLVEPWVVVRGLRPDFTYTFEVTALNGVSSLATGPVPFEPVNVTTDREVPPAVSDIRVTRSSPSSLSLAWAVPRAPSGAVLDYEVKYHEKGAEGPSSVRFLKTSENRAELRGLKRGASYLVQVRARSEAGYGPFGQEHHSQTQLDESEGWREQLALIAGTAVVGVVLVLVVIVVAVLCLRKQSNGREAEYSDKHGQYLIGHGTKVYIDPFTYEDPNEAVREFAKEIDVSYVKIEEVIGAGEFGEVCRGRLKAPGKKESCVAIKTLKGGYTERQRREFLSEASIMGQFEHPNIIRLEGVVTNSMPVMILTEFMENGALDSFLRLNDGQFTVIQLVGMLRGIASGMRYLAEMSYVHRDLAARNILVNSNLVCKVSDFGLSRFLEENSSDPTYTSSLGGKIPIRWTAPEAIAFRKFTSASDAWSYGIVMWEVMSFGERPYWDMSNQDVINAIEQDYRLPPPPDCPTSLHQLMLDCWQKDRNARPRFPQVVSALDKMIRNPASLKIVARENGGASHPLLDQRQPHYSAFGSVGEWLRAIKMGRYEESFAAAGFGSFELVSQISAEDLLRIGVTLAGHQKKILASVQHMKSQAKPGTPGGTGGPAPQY

| Compound | Kd [µM] |
| --- | --- |
| CCOc1cc2ncc(C#N)c(Nc3ccc(F)c(Cl)c3)c2cc1NC(=O)/C=C/CN(C)C [PELITINIB] | 2.8 |
| Nc1nc(Nc2ccc(S(N)(=O)=O)cc2)nn1C(=O)c1c(F)cccc1F [JNJ-7706621] | > 10 |
| NC(=O)c1ccc(-c2nc(-c3ccc4c(c3)OCO4)c(-c3ccccn3)[nH]2)cc1 [SB-431542] | > 10 |

Biological target: Serine/threonine-protein kinase 32C (Homo sapiens, UniProt Q86UX6)
Sequence (Q86UX6 whole entry): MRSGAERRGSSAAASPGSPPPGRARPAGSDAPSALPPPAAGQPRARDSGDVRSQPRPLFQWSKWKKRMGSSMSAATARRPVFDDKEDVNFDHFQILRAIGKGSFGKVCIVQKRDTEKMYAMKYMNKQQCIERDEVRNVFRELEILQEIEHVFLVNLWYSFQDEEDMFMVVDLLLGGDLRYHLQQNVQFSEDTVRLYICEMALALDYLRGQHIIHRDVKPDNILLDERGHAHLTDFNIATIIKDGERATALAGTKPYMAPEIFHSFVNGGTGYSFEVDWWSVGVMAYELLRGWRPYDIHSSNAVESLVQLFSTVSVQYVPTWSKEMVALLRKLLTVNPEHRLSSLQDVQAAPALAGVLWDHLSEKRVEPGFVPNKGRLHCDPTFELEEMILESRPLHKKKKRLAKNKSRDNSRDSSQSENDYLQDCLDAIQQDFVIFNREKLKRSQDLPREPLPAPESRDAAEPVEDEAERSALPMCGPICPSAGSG

| Compound | Kd [µM] |
| --- | --- |
| CCOc1cc2ncc(C#N)c(Nc3ccc(F)c(Cl)c3)c2cc1NC(=O)/C=C/CN(C)C [PELITINIB] | > 10 |
| Nc1nc(Nc2ccc(S(N)(=O)=O)cc2)nn1C(=O)c1c(F)cccc1F [JNJ-7706621] | > 10 |
| NC(=O)c1ccc(-c2nc(-c3ccc4c(c3)OCO4)c(-c3ccccn3)[nH]2)cc1 [SB-431542] | > 10 |

Biological target: Serine/threonine-protein kinase PAK 5 (Homo sapiens, UniProt Q9P286)

| Compound | Kd [µM] |
| --- | --- |
| CCOc1cc2ncc(C#N)c(Nc3ccc(F)c(Cl)c3)c2cc1NC(=O)/C=C/CN(C)C [PELITINIB] | > 10 |
| NC(=O)c1ccc(-c2nc(-c3ccc4c(c3)OCO4)c(-c3ccccn3)[nH]2)cc1 [SB-431542] | > 10 |

Biological target: Leukocyte tyrosine kinase receptor (Homo sapiens, UniProt P29376)
Sequence (P29376 whole entry): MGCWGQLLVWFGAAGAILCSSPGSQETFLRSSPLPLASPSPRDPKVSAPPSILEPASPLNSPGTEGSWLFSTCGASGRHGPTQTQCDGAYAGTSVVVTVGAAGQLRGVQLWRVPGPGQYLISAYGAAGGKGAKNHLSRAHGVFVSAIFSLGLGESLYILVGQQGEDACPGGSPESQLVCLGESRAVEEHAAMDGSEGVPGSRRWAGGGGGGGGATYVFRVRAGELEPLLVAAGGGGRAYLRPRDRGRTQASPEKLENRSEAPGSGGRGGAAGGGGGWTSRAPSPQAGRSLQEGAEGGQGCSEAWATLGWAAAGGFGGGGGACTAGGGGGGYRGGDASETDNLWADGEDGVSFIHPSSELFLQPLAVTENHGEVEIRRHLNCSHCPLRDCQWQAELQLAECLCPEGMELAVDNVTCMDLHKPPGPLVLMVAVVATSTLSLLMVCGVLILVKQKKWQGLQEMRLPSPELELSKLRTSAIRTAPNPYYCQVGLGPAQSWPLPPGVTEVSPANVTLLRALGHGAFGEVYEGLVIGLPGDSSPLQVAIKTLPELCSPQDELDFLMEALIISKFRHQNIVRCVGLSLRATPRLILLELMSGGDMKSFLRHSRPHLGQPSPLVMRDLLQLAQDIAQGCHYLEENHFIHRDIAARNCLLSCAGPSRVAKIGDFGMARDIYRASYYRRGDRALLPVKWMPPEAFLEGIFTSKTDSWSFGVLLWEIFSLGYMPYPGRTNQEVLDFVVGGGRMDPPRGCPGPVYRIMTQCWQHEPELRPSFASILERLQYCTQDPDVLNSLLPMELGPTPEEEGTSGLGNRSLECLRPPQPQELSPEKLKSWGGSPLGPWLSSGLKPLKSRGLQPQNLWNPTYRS

| Compound | Kd [µM] |
| --- | --- |
| CCOc1cc2ncc(C#N)c(Nc3ccc(F)c(Cl)c3)c2cc1NC(=O)/C=C/CN(C)C [PELITINIB] | > 10 |
| Nc1nc(Nc2ccc(S(N)(=O)=O)cc2)nn1C(=O)c1c(F)cccc1F [JNJ-7706621] | > 10 |
| NC(=O)c1ccc(-c2nc(-c3ccc4c(c3)OCO4)c(-c3ccccn3)[nH]2)cc1 [SB-431542] | > 10 |

Biological target: Tyrosine-protein kinase ABL2 (Homo sapiens, UniProt P42684)
Sequence (P42684 whole entry): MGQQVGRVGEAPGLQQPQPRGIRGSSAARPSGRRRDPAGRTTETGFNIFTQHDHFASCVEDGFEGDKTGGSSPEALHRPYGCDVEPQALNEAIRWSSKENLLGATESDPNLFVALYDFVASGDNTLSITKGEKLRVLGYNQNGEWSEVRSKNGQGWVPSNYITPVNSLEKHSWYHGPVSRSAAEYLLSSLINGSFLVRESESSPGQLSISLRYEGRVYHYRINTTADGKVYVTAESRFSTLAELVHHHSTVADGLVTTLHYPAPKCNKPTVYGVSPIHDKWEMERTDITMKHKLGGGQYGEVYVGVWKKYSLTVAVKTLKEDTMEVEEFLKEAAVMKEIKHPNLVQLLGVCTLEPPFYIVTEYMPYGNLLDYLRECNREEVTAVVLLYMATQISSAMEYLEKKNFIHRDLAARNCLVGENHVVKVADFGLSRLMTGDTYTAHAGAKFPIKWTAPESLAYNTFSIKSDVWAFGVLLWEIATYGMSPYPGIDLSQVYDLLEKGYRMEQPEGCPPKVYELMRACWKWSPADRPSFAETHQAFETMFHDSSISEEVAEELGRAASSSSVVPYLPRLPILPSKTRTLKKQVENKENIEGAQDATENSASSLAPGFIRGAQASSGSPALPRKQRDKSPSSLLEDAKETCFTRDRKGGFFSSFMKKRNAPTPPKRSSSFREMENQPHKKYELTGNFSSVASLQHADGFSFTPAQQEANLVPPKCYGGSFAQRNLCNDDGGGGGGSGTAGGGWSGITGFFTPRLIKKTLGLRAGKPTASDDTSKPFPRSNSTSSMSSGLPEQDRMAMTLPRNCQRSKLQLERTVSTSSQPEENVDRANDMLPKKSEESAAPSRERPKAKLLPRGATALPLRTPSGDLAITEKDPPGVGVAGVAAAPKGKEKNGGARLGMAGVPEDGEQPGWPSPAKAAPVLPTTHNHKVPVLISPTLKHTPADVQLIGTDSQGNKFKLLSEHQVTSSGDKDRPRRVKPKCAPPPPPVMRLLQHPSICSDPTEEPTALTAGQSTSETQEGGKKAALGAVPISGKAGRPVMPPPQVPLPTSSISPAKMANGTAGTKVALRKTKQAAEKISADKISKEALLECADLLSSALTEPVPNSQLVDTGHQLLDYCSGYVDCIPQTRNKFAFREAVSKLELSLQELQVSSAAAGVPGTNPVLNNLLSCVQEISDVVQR

| Compound | Kd [µM] |
| --- | --- |
| Nc1nc(Nc2ccc(S(N)(=O)=O)cc2)nn1C(=O)c1c(F)cccc1F [JNJ-7706621] | > 10 |
| NC(=O)c1ccc(-c2nc(-c3ccc4c(c3)OCO4)c(-c3ccccn3)[nH]2)cc1 [SB-431542] | > 10 |

Biological target: T3, Interleukin-1 receptor-associated kinase 3 (Homo sapiens, UniProt Q9Y616)
T3 sequence (Q9Y616 whole entry): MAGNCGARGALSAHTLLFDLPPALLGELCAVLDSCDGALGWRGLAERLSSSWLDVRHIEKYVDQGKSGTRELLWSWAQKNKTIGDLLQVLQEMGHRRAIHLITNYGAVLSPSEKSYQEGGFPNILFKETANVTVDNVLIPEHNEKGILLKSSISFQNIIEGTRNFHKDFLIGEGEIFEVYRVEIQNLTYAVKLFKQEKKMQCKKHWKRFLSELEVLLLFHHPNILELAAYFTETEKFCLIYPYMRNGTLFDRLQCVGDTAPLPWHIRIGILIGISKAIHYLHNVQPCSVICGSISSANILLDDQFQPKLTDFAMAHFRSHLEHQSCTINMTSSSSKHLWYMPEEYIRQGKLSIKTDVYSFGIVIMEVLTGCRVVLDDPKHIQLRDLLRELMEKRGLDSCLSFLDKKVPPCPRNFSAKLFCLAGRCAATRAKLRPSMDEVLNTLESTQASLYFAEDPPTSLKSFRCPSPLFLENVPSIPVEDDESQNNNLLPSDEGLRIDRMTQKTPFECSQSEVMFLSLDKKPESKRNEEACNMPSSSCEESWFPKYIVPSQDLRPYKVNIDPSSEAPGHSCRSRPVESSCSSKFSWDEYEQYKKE

| Compound | Kd [µM] |
| --- | --- |
| CCOc1cc2ncc(C#N)c(Nc3ccc(F)c(Cl)c3)c2cc1NC(=O)/C=C/CN(C)C [PELITINIB] | > 10 |
| Nc1nc(Nc2ccc(S(N)(=O)=O)cc2)nn1C(=O)c1c(F)cccc1F [JNJ-7706621] | 3.4 |
| NC(=O)c1ccc(-c2nc(-c3ccc4c(c3)OCO4)c(-c3ccccn3)[nH]2)cc1 [SB-431542] | > 10 |

Biological target: Activin receptor type-2B (Homo sapiens, UniProt Q13705)
Sequence (Q13705 whole entry): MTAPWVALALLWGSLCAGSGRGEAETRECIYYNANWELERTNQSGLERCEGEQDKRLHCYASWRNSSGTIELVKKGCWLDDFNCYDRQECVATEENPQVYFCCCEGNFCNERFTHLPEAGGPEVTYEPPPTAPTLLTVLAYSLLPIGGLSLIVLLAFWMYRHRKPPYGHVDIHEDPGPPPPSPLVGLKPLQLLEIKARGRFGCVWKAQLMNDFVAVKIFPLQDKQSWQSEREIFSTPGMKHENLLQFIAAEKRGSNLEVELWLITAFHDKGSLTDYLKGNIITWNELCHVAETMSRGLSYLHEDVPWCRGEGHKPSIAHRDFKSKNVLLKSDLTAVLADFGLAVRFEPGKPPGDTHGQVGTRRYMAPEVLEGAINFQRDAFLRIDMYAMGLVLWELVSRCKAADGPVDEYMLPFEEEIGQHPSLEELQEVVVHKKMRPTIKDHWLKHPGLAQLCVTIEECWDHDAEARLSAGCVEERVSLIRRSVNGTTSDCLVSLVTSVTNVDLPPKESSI

| Compound | Kd [µM] |
| --- | --- |
| CCOc1cc2ncc(C#N)c(Nc3ccc(F)c(Cl)c3)c2cc1NC(=O)/C=C/CN(C)C [PELITINIB] | > 10 |
| Nc1nc(Nc2ccc(S(N)(=O)=O)cc2)nn1C(=O)c1c(F)cccc1F [JNJ-7706621] | 5.9 |
| NC(=O)c1ccc(-c2nc(-c3ccc4c(c3)OCO4)c(-c3ccccn3)[nH]2)cc1 [SB-431542] | > 10 |

Biological target: Mitogen-activated protein kinase kinase kinase kinase 1 (Homo sapiens, UniProt Q92918)

| Compound | Kd [µM] |
| --- | --- |
| Nc1nc(Nc2ccc(S(N)(=O)=O)cc2)nn1C(=O)c1c(F)cccc1F [JNJ-7706621] | 0.12 |
| NC(=O)c1ccc(-c2nc(-c3ccc4c(c3)OCO4)c(-c3ccccn3)[nH]2)cc1 [SB-431542] | > 10 |

Biological target: cAMP-dependent protein kinase catalytic subunit beta (Homo sapiens, UniProt P22694)

| Compound | Kd [µM] |
| --- | --- |
| CCOc1cc2ncc(C#N)c(Nc3ccc(F)c(Cl)c3)c2cc1NC(=O)/C=C/CN(C)C [PELITINIB] | > 10 |
| Nc1nc(Nc2ccc(S(N)(=O)=O)cc2)nn1C(=O)c1c(F)cccc1F [JNJ-7706621] | > 10 |
| NC(=O)c1ccc(-c2nc(-c3ccc4c(c3)OCO4)c(-c3ccccn3)[nH]2)cc1 [SB-431542] | > 10 |
